Laboratory results published in the supplement of paper PMC10307832.

Columns and labels:
Test in all cases: relative viability (nuclei count vs DMSO), 5 days (fraction); higher = more cells survive
[1] = compound: COc1nc(N)nc2c1ncn2[C@@H]1O[C@H](CO)[C@@H](O)[C@@H]1O [Nelarabine] + Cc1nc(NC(=O)N2CCC[C@H]2C(N)=O)sc1-c1ccnc(C(C)(C)C(F)(F)F)c1 [Alpelisib] (partner 2 µM)
Method in brief: (§1)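 For relative viability, nuclei counts in treated wells were divided by those in vehicle wells. Lung cancer cell lines had been pin-tool dosed in 1536-well plates the day after seeding and cultured for 5 days, then fixed and stained in one step (final 0.05% Triton X-100, 1% formaldehyde, 1 ug/ml Hoechst) and imaged at 4×. Doses were one drug alone or a fixed anchor-drug dose plus five library-drug doses (not always all listed) in √10 steps, and values are duplicate-plate medians.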

[2] = compound: C=CCn1c(=O)c2cnc(Nc3ccc(N4CCN(C)CC4)cc3)nc2n1-c1cccc(C(C)(C)O)n1 [Adavosertib] + NC(=O)Nc1cc(-c2cccc(F)c2)sc1C(=O)N[C@H]1CCCNC1 [AZD7762] (partner 0.2 µM)
Method in brief: as §1

[3] = compound: C=CCn1c(=O)c2cnc(Nc3ccc(N4CCN(C)CC4)cc3)nc2n1-c1cccc(C(C)(C)O)n1 [Adavosertib] + Cc1cc(Nc2cc(N3CCN(C)CC3)nc(Sc3ccc(NC(=O)C4CC4)cc3)n2)n[nH]1 [Tozasertib] (partner 0.1 µM)
Method in brief: as §1

[4] = compound: C=CCn1c(=O)c2cnc(Nc3ccc(N4CCN(C)CC4)cc3)nc2n1-c1cccc(C(C)(C)O)n1 [Adavosertib] + COc1cccc2cc(-c3nc([C@H]4CC[C@H](C(=O)O)CC4)n4ncnc(N)c34)[nH]c12 [OSI-027] (partner 0.5 µM)
Method in brief: as §1

Row | Cell Line | relative viability ([1]; first compound 0.01 µM) | relative viability ([1]; first compound 0.03162 µM) | relative viability ([1]; first compound 0.1 µM) | relative viability ([1]; first compound 0.3162 µM) | relative viability ([1]; first compound 1 µM) | relative viability ([2]; first compound 0.01 µM) | relative viability ([2]; first compound 0.03162 µM) | relative viability ([2]; first compound 0.1 µM) | relative viability ([2]; first compound 0.3162 µM) | relative viability ([3]; first compound 0.01 µM) | relative viability ([3]; first compound 0.03162 µM) | relative viability ([3]; first compound 0.1 µM) | relative viability ([3]; first compound 0.3162 µM) | relative viability ([4]; first compound 0.01 µM) | relative viability ([4]; first compound 0.03162 µM) | relative viability ([4]; first compound 0.1 µM) | relative viability ([4]; first compound 0.3162 µM)
1 | NCI-H1915 | 1.2 | 1.05 | 1.11 | 1.07 | 1.06 | 0.724 | 0.657 | 0.566 | 0.238 | 0.433 | 0.441 | 0.509 | 0.524 | 0.677 | 0.606 | 0.69 | 0.586
2 | NCI-H1395 | 1.15 | 0.987 | 1 | 1.34 | 0.99 | 0.377 | 0.354 | 0.345 | 0.316 | 0.757 | 0.822 | 0.853 | 0.733 | 0.69 | 0.727 | 0.656 | 0.492
3 | LOU-NH91 | 0.74 | 0.704 | 0.661 | 0.706 | 0.738 | 0.776 | 0.723 | 0.645 | 0.531 | 0.694 | 0.69 | 0.735 | 0.62 | 0.65 | 0.707 | 0.742 | 0.677
4 | SW 1573 | 0.57 | 0.848 | 0.803 | 0.806 | 0.818 |  |  |  |  | 0.221 | 0.234 | 0.192 | 0.17 | 0.645 | 0.626 | 0.882 | 0.278
5 | NCI-H23 | 0.637 | 0.719 | 0.606 | 0.686 | 0.693 | 0.227 | 0.143 | 0.118 | 0.142 | 0.326 | 0.321 | 0.283 | 0.192 | 0.604 | 0.631 | 0.553 | 0.327
6 | NCI-H1993 | 0.704 | 0.736 | 0.756 | 0.712 | 0.689 | 0.905 | 0.828 | 0.697 | 0.807 | 0.633 | 0.598 | 0.658 | 0.666 | 0.559 | 0.537 | 0.638 | 0.573
7 | HARA | 0.925 | 0.737 | 0.768 | 1.09 | 0.806 | 0.296 | 0.192 | 0.155 | 0.129 | 0.125 | 0.128 | 0.111 | 0.0667 | 0.485 | 0.486 | 0.591 | 0.368
8 | HCC-366 | 0.468 | 0.267 | 0.308 | 0.517 | 0.47 | 0.292 | 0.21 | 0.184 | 0.0419 | 0.137 | 0.132 | 0.145 | 0.169 | 0.964 | 1.02 | 0.897 | 0.889
9 | COR-L 105 | 1.15 | 1.11 | 1.03 | 1.3 | 0.985 |  |  |  |  | 0.353 | 0.374 | 0.385 | 0.319 | 0.598 | 0.677 | 0.558 | 0.503
10 | HCC-44 | 0.888 | 0.876 | 0.74 | 0.871 | 0.831 | 0.989 | 0.971 | 1.02 | 0.902 | 1.02 | 0.951 | 1.24 | 1.15 | 0.525 | 0.484 | 0.538 | 0.578
11 | EBC-1 | 0.86 | 0.829 | 0.941 | 0.87 | 0.951 |  |  |  |  |  |  |  |  |  |  |  | 
12 | NCI-H1563 | 0.956 | 0.858 | 0.886 | 1 | 0.919 |  |  |  |  |  |  |  |  | 0.737 | 0.812 | 0.766 | 0.757
13 | NCI-H2023 | 0.634 | 0.769 | 0.559 | 0.594 | 0.55 |  |  |  |  | 0.453 | 0.391 | 0.414 | 0.266 | 0.465 | 0.35 | 0.304 | 0.203
14 | IA-LM | 0.928 | 0.957 | 0.789 | 0.871 | 0.826 |  |  |  |  |  |  |  |  |  |  |  | 
15 | NCI-H1299 | 1.16 | 1.11 | 1.04 | 1.08 | 1.2 |  |  |  |  |  |  |  |  |  |  |  | 
16 | NCI-H1703 | 0.395 | 0.278 | 0.385 | 0.366 | 0.409 | 0.105 | 0.13 | 0.122 | 0.118 |  |  |  |  |  |  |  | 
17 | Calu-6 | 1.1 |  | 0.979 | 0.972 | 1.11 |  |  |  |  |  |  |  |  |  |  |  | 
18 | NCI-H522 |  |  |  |  |  | 0.654 | 0.733 | 0.782 | 0.882 | 0.522 | 0.58 | 0.508 | 0.581 | 0.809 | 0.784 | 0.718 | 0.659
19 | NCI-H1650 |  |  |  |  |  |  |  |  |  | 0.415 | 0.464 | 0.563 | 0.299 | 0.447 | 0.775 | 0.563 | 0.384
20 | NCI-H661 | 0.497 | 0.834 | 0.701 | 0.772 | 0.455 |  |  |  |  | 0.353 | 0.36 | 0.339 | 0.349 | 0.762 | 0.723 | 0.685 | 0.284
21 | NCI-H2228 | 0.882 | 0.595 |  | 0.815 | 0.676 |  |  |  |  | 0.276 | 0.277 | 0.249 | 0.204 | 0.509 | 0.651 | 0.618 | 0.142
22 | NCI-H1623 |  |  |  |  |  |  |  |  |  | 0.4 | 0.447 | 0.351 | 0.447 | 0.427 | 0.446 | 0.389 | 0.431
23 | NCI-H1792 | 0.908 |  | 0.83 | 0.688 | 0.828 | 0.683 | 0.652 | 0.452 | 0.135 |  |  |  |  |  | 0.701 | 1.12 | 0.751
24 | NCI-H2342 |  |  |  |  |  | 0.524 | 0.508 | 0.48 | 0.43 | 0.548 | 0.507 | 0.55 | 0.525 | 0.575 | 0.566 | 0.676 | 0.616
25 | A549 | 0.885 | 0.879 | 0.783 | 0.818 | 0.858 |  |  |  |  |  |  |  |  |  |  |  | 
26 | ChaGo-K-1 |  |  |  |  |  | 0.918 | 0.836 | 0.732 | 0.29 | 0.228 | 0.243 | 0.229 | 0.228 | 0.546 | 0.633 | 0.511 | 0.591
